This note sets out measurements from US7776826B2, “Method for fostering bone formation and preservation” (Unigene Laboratories, Inc., priority 2004, dated 2010).

Type in all cases: in vivo, rat
For assay [1], the system named is osteoporotic female Sprague-Dawley rats. Briefly: Lumbar vertebral bone mineral density and bone formation rate in ovariectomized osteoporotic rats, without mechanical induction. Particulars: OVX rats, 4 weeks subcutaneous treatment, no mechanical induction. The protocol: FIG. 15 is a bar graph comparing the Lumbar Vertebral Bone Mineral Density obtained in osteoporotic female Sprague-Dawley rats wherein the osteoporosis was induced via an ovariectomy. The rats were treated with (1) PTH[1-31]-NH2; (2) PTH[1-34]-NH2; and PTH[1-34]-OH; and
FIG. 16 is a bar graph comparing the Lumbar Vertebral Bone Formation Rate obtained in osteoporotic female Sprague-Dawley rats wherein the osteoporosis was induced via an ovariectomy. The rats were treated with (1) PTH[1-31]-NH2; (2) PTH[1-34]-NH2; and PTH[1-34]-OH.
A series of experiments was performed comparing (1) lumbar vertebral bone mineral density, and (2) lumbar vertebral bone formation rate achieved with PTH[1-31]-NH2 and PTH[1-34]-OH compared to the preferred PTH[1-34]-NH2 analog discussed above in the absence of the mechanical induction step of the invention. The study involved a four-week treatment of female Sprague-Dawley rats at 10 months of age, and 6 months post-ovariectomy (“OVX”), which induces osteoporosis, with one of the three above-noted parathyroid hormone truncates. The rats were randomized into the following groups: sham OVX, OVX+ vehicle, OVX+PTH [1-31]-NH2 or PTH [1-34]-NH2 (obtained from Unigene Laboratories, Inc.) at 2.5, 10 or 40 μg/kg/day subcutaneous, or PTH[1-34]-OH (obtained from Bachem) at 10 μg/kg/day subcutaneous. After 4 weeks of treatment, the right femur of each animal was analyzed by DEXA and bone histomorphometry. FIG. 15 is a bar graph providing a comparison of the lumbar vertebral bone mineral density achieved with PTH[1-31]-NH2, PTH[1-34]-NH2 and PTH[1-34]-OH. FIG. 16 is a bar graph comparing the lumbar vertebral formation rates achieved with these same truncates. […] Because of the similarity of anabolic action among the above-discussed parathyroid hormones, it is therefore reasonable to expect that all known PTH analogs will advantageously function in the desired manner in the method of the present invention.

The test system of assay [2] is Male Sprague-Dawley rats. The assay can be described thus: pQCT analysis of left and right femoral shafts at day 21, Groups K-R. Particulars: for Left femoral shaft Total density mean / Left femoral shaft Trabecular density mean: ablated femur; for Left femoral shaft Total density mean / Left femoral shaft Trabecular density mean / Right femoral shaft Total density mean / Right femoral shaft Trabecular density mean: day 21, agent daily for 21 days, Groups K-R; for trabecular bone density of left femoral shaft, in words: bmx, day 21; for Right femoral shaft Total density mean / Right femoral shaft Trabecular density mean: non-ablated femur. The text has this: (§1) FIG. 10 (a-b) presents high resolution radiograms of the left and right femurs, respectively, from an additional series of experiments on additional groups of male Sprague-Dawley rats (6 rats per group) aged 9 weeks which were sacrificed and tested after 21 days (3 weeks). The various groups were subjected to the following treatment modalities: Group K—control day 0; Group L—control day 21; Group M—bone marrow ablation (bmx) day 0; Group N—sham day 21; Group O— bmx+phosphate buffer saline (PBS) daily for 21 days; Group P—bmx+PTH[1-34]-NH2 daily for 21 days; Group Q—bmx+ parathyroid hormone related peptide (PTHRP) daily for 21 days; and Group R—bmx+rat α-calcitonin gene related peptide (CGRP) daily for 21 days;
FIG. 11 (a-d) are graphical representations of the results of Peripheral Quantitative Computerized Tomography (PQCT) analyses of, respectively, the left (ablated) and right (non-ablated) femoral shafts of the rats from Groups K-R (see description of FIG. 10). FIGS. 11(a) and 11(b) illustrate the trabecular bone density observed in, respectively the left and right femoral shafts at day 21; whereas, FIGS. 11(c) and 11(d) illustrate the total bone density of, respectively, the left and right femoral shafts at the same interval. The meanings of the abbreviations used in FIGS. 11(a-d) are identical to those described above with regard to FIG. 10. […] [+=p value<0.01 vs. sham; *=p value<0.01 vs. bmx+PTH; **=p value<0.01 vs. bmx+PTH; and #=p value<0.05 vs. PBS];
An additional series of experiments was thereafter carried out with additional groups of rats (K-R) in order to (1) measure the effect of additional bone anabolic agents, i.e., other than parathyroid hormone (PTH[1-34]-NH2) and calcitonin, as well as to compare the effect(s) achieved with such parathyroid hormone with those obtained with the use of alternate anabolic agents, including parathyroid hormone related peptide (PTHrP) and calcitonin gene related peptide (CGRP). As in the case of the analyses discussed above with regard to FIGS. 3-9, in the animals tested only the left femur underwent the bone marrow ablation (bmx) procedure, i.e., there was no ablation of the right femur. Thus, as noted above, any views of the right femur in the figures described below indicating bone marrow ablation (bmx) as a treatment modality should be taken to mean that such treatment was applied to the corresponding left femur. Further, as was additionally the case above, the samples described below with regard to FIGS. 10-13 were taken from the femur shafts, rather than the corresponding distal epiphysis as in the case of FIGS. 1 and 2. The figures discussed below depict the results of end-point studies wherein the measurements were taken only at the 21 day end-point.
FIG. 11 (a-d) graphically illustrates, by means of a bar graph, the improvements in trabecular bone density and, to some extent, total bone density, in the left femoral shaft of rats subjected to the treatment modalities described above with regard to FIG. 10 (a-b); that is, control day 0; bmx day 0; control day 21; sham day 21; bmx+PBS on day 21; bmx+PTH on day 21; bmx+PTHrP on day 21; and bmx+CGRP on day 21. Again, this is attributable that (only) the left femur was subjected to the bmx treatment, and thus was the only femur wherein the effects of such bmx treatment overlapped with that of the systemic treatment with the bone anabolic agent. […] In contrast to the values obtained for the left femur, no significant amount of bone was formed in the right femur, notwithstanding whether it is trabecular bone density or total bone density which is being measured. This lack of new bone is, furthermore, attributable to the fact that the right femur had not been subjected to the bone marrow ablation (bmx) treatment.

In assay [3] the test system is Male Sprague-Dawley rats. The assay can be described thus: High resolution radiograms of left and right femurs, Groups K-R. Particulars: left femur with bmx, agent daily for 21 days.
Excerpt: as §1
FIG. 10 (a-b) presents a set of high resolution radiograms of the entire left and right femurs of additional (to those described above) groups of rats, injected daily for a designated term with one or more of the following agents: phosphate buffer saline (PBS); parathyroid hormone (PTH[1-34]-NH2); parathyroid hormone related peptide (PTHrP); and calcitonin gene related peptide (CGRP). The rats chosen for test subjects were subjected to the following treatment modalities (as indicated in the lower left corner of each of the radiograms): control day 0; control day 21; bone marrow ablation (bmx) day 0; sham day 21; bmx followed by injection of PBS buffer daily for 21 days; bmx followed by injection of PTH daily for 21 days; bmx followed by injection of PTHrP daily for 21 days; and bmx followed by injection of CGRP daily for 21 days.
As shown by FIG. 10(a), the best results, i.e., the greatest bone density, was obtained in the left femur wherein the effect of the bone marrow ablation overlapped with that attributable to the administration of the various anabolic agents. As in the case of FIG. 3, the lighter, i.e, more radio-opaque, areas indicate the locations of the greatest additional bone growth.

The subject of assay [4] is Male Sprague-Dawley rats. The assay can be described thus: MicroCT analysis of femoral shafts, Groups K-R. The settings on record: left femoral shaft with bmx, agent for 21 days. The text has this:
FIG. 13(a-b) illustrate the results of Micro Computerized Tomography (MicroCT) analysis of the left (ablated) and right (non-ablated) femoral shafts of the rats of Groups K-R. The abbreviations are the same as those used in FIGS. 10-12;
FIG. 13 (a-b) provides a comparison between Micro Computerized Tomography (MicroCT) analyses of bone samples taken from the left femoral shaft (FIG. 13a) and the right femoral shaft (FIG. 13b) of rats treated in the manner indicated in FIGS. 10-12. As in the other cases discussed above, the most significant amount of new bone growth is found in the shaft of the left femur, since this shaft was subjected to the bmx treatment. […] In contrast, the right femoral shaft sections show very little or no increase in bone growth at all.

The test system of assay [5] is Male Sprague-Dawley rats. Briefly: Serum osteocalcin concentration at day 21, Groups K-R. Particulars: for osteocalcin level, in words: bmx + agent daily for 21 days; for Osteocalcin mean: bmx rats, day 21, agent daily for 21 days, Groups K-R. The source says: FIG. 12 provides a measurement of the serum osteocalcin concentration (in ng/ml) in the blood of the rats in Groups K-R when the rats were sacrificed 21 days after commencement of treatment. The meaning of the abbreviated terms is the same as in FIGS. 10 and 11. […] [*=p value<0.05, while **=p value<0.01];
FIG. 12 is a bar graph which sets forth the osteocalcin levels determined, at the time of sacrifice, in the blood serum of the rats which were the subject of the analyses illustrated in FIGS. 10 and 11. As indicated above, it is well known that osteocalcin is a biochemical marker indicative of new bone growth.
The table additionally includes the standard deviations for the values obtained for each analysis, which standard deviations are also included in FIG. 12.

Where no end group is shown, it is not given here.

In the case of `CC[C@H](C)[C@H](NC(=O)[C@H](CCC(=O)O)NC(=O)[C@H](CO)NC(=O)[C@@H](NC(=O)[C@@H](N)CO)C(C)C)C(=O)N[C@@H](CCC(N)=O)C(=O)N[C@@H](CC(C)C)C(=O)N[C@@H](CCSC)C(=O)N[C@@H](Cc1cnc[nH]1)C(=O)N[C@@H](CC(N)=O)C(=O)N[C@@H](CC(C)C)C(=O)NCC(=O)N[C@@H](CCCCN)C(=O)N[C@@H](Cc1cnc[nH]1)C(=O)N[C@@H](CC(C)C)C(=O)N[C@@H](CC(N)=O)C(=O)N[C@@H](CO)C(=O)N[C@@H](CCSC)C(=O)N[C@@H](CCC(=O)O)C(=O)N[C@@H](CCCN=C(N)N)C(=O)N[C@H](C(=O)N[C@@H](CCC(=O)O)C(=O)N[C@@H](Cc1c[nH]c2ccccc12)C(=O)N[C@@H](CC(C)C)C(=O)N[C@@H](CCCN=C(N)N)C(=O)N[C@@H](CCCCN)C(=O)N[C@@H](CCCCN)C(=O)N[C@@H](CC(C)C)C(=O)N[C@@H](CCC(N)=O)C(=O)N[C@@H](CC(=O)O)C(=O)N[C@H](C(=O)N[C@@H](Cc1cnc[nH]1)C(=O)N[C@@H](CC(N)=O)C(=O)N[C@@H](Cc1ccccc1)C(=O)O)C(C)C)C(C)C` [PTH[1-34]-OH, reference compound], in assay [1], the “bone anabolic activity (lumbar vertebral bone mineral density and bone formation rate)” value is “substantially equivalent”.

For “PTH[1-31]-NH2 (SVSEIQLMHNLGKHLNSMERVEWLRKKLQDV-NH2; UniProt P01270 32-62, looked up, fragment) [amidated parathyroid hormone truncate obtained from Unigene Laboratories]”, the “bone anabolic activity (lumbar vertebral bone mineral density and bone formation rate)” value in assay [1] is given as “substantially equivalent”.

“parathyroid hormone related peptide [PTHRP]”: in assay [2], the “Left femoral shaft Total density mean” value was determined as 1017.9 mg/mL; the “Left femoral shaft Trabecular density mean” value was determined as 403.1 mg/mL; the “trabecular bone density of left femoral shaft, in words” value is listed as “significantly improved”; the “Right femoral shaft Total density mean” value is 858.2 mg/mL. In addition, the “Right femoral shaft Trabecular density mean” value in assay [2] is 122.4 mg/mL. The “bone density on radiograms, in words” value in assay [3] is listed as “satisfactory results”. Besides, the “new bone growth in MicroCT, in words” value in assay [4] is recorded as “significant degree of improvement”. Further, in assay [5], the “osteocalcin level, in words” value is “Significant new bone growth” and the Osteocalcin mean stood at 124.2 ng/mL.

As for “rat α-calcitonin gene related peptide [CGRP]”, in assay [2], the “Left femoral shaft Total density mean” value is 963.5 mg/mL; the “Left femoral shaft Trabecular density mean” value came to 283.5 mg/mL; the “trabecular bone density of left femoral shaft, in words” value is “significantly improved”; the “Right femoral shaft Total density mean” value came out at 831.1 mg/mL. Moreover, the “Right femoral shaft Trabecular density mean” value in assay [2] turned out to be 115.5 mg/mL. Further, the “bone density on radiograms, in words” value in assay [3] is “satisfactory results”. Also, the “new bone growth in MicroCT, in words” value in assay [4] was “new bone growth, although lesser in scope”. In assay [5], the “osteocalcin level, in words” value is listed as “no increase” and the Osteocalcin mean was 97 ng/mL.
